According to PubChem BioAssay AID1259407 (Chemical Carcinogenesis Research Information System (CCRIS), 2018):
Active and inactive are the calls of the source. How the calls were made is not given here.

Tested on: CCRIS mutagenicity, Ames/micronucleus/aberration tests
Test: CCRIS mutagenicity studies
[1] = Test System: AMES SALMONELLA TYPHIMURIUM, Strain/Indicator: TA98, Metabolic Activation: NONE, Method: PREINCUBATION
[2] = Test System: AMES SALMONELLA TYPHIMURIUM, Strain/Indicator: TA100, Metabolic Activation: NONE, Method: PREINCUBATION
[3] = Test System: AMES SALMONELLA TYPHIMURIUM, Strain/Indicator: TA100, Metabolic Activation: RAT, LIVER, S-9, PHENOBARBITAL AND 5,6-BENZOFLAVONE, Method: PREINCUBATION
[4] = Test System: AMES SALMONELLA TYPHIMURIUM, Strain/Indicator: TA102, Metabolic Activation: NONE, Method: PREINCUBATION
[5] = Test System: AMES SALMONELLA TYPHIMURIUM, Strain/Indicator: TA102, Metabolic Activation: RAT, LIVER, S-9, PHENOBARBITAL AND 5,6-BENZOFLAVONE, Method: PREINCUBATION
[6] = Test System: AMES SALMONELLA TYPHIMURIUM, Strain/Indicator: TA2637, Metabolic Activation: NONE, Method: PREINCUBATION
[7] = Test System: AMES SALMONELLA TYPHIMURIUM, Strain/Indicator: TA2637, Metabolic Activation: RAT, LIVER, S-9, PHENOBARBITAL AND 5,6-BENZOFLAVONE, Method: PREINCUBATION
[8] = Test System: AMES SALMONELLA TYPHIMURIUM, Strain/Indicator: TA100, Metabolic Activation: NONE, Method: STANDARD PLATE
[9] = Test System: AMES SALMONELLA TYPHIMURIUM, Strain/Indicator: TA100, Metabolic Activation: RAT, LIVER, S-9, AROCLOR 1254, Method: STANDARD PLATE
[10] = Test System: AMES SALMONELLA TYPHIMURIUM, Strain/Indicator: TA97, Metabolic Activation: NONE, Method: STANDARD PLATE
[11] = Test System: AMES SALMONELLA TYPHIMURIUM, Strain/Indicator: TA98, Metabolic Activation: NONE, Method: STANDARD PLATE

SMILES: O=C1C(Cl)=C(Cl)C(=O)C(Cl)=C1Cl
- mutagenic call (End Point: In vitro chromosomal aberrations, Test System: Chinese hamster lung (CHL/IU) cells, Metabolic Activation: Rat, Liver, S9, Phenobarbital and 5,6-benzoflavone): active; positive (structural changes and ploidy)
- mutagenic call [1]: inactive; negative
- mutagenic call [2]: inactive; negative
- mutagenic call [3]: active; positive
- mutagenic call [4]: inactive; negative
- mutagenic call [5]: inactive; negative
- mutagenic call [6]: inactive; negative
- mutagenic call [7]: inactive; negative
- mutagenic call (Test System: Ames Salmonella typhimurium, Strain/Indicator: TA98, Metabolic Activation: None, Method: Preincubation): inactive; negative
- mutagenic call (Test System: Ames Salmonella typhimurium, Strain/Indicator: TA98, Metabolic Activation: Rat, Liver, S9, Sodium phenobarbital and 5,6-benzoflavone (10%), Method: Preincubation): inactive; negative
- mutagenic call (Test System: Ames Salmonella typhimurium, Strain/Indicator: TA100, Metabolic Activation: None, Method: Preincubation): inactive; negative
- mutagenic call (Test System: Ames Salmonella typhimurium, Strain/Indicator: TA100, Metabolic Activation: Rat, Liver, S9, Sodium phenobarbital and 5,6-benzoflavone (10%), Method: Preincubation): active; positive
- mutagenic call (Test System: Ames Salmonella typhimurium, Strain/Indicator: TA1535, Metabolic Activation: None, Method: Preincubation): inactive; negative
- mutagenic call (Test System: Ames Salmonella typhimurium, Strain/Indicator: TA1535, Metabolic Activation: Rat, Liver, S9, Sodium phenobarbital and 5,6-benzoflavone (10%), Method: Preincubation): inactive; negative
- mutagenic call (Test System: Ames Salmonella typhimurium, Strain/Indicator: TA1537, Metabolic Activation: None, Method: Preincubation): inactive; negative
- mutagenic call (Test System: Ames Salmonella typhimurium, Strain/Indicator: TA1537, Metabolic Activation: Rat, Liver, S9, Sodium phenobarbital and 5,6-benzoflavone (10%), Method: Preincubation): inactive; negative
- mutagenic call (Test System: E. coli, Strain/Indicator: WP2uvrA/pKM101, Metabolic Activation: None, Method: Preincubation): inactive; negative
- mutagenic call (Test System: E. coli, Strain/Indicator: WP2uvrA/pKM101, Metabolic Activation: Rat, Liver, S9, Sodium Phenobarbital and 5,6-benzoflavone, Method: Preincubation): inactive; negative

SMILES: c1ccc2c(c1)-c1ccc3ccccc3c1C1OC21 (stereo not given)
- mutagenic call [1]: active; positive
- mutagenic call (Test System: AMES SALMONELLA TYPHIMURIUM, Strain/Indicator: TA98, Metabolic Activation: NONE, Method: PREINCUBATION (KCL-CONTAINING MEDIUM)): active; positive
- mutagenic call (Test System: AMES SALMONELLA TYPHIMURIUM, Strain/Indicator: TA98, Metabolic Activation: NONE, Method: PREINCUBATION (KCL-FREE MEDIUM)): active; positive
- mutagenic call [2]: active; positive
- mutagenic call (Test System: AMES SALMONELLA TYPHIMURIUM, Strain/Indicator: TA100, Metabolic Activation: NONE, Method: PREINCUBATION (KCL-CONTAINING OR KCL-FREE MEDIA)): active; positive
- mutagenic call [8]: active; positive
- mutagenic call [9]: inactive; negative
- mutagenic call (Test System: AMES SALMONELLA TYPHIMURIUM, Strain/Indicator: TA1537, Metabolic Activation: NONE, Method: STANDARD PLATE): active; positive
- mutagenic call (Test System: CHINESE HAMSTER V-79, Strain/Indicator: V-79/6-THIOGUANINE, Metabolic Activation: NONE, Method: STANDARD PLATE): active; positive

SMILES: [O-][n+]1c2ccc3ccccc3c2cc2c3ccccc3ccc21
- mutagenic call (Test System: AMES SALMONELLA TYPHIMURIUM, Strain/Indicator: TA100, Metabolic Activation: GUINEA PIG, LIVER, S-9, 3-METHYLCHOLANTHRENE, Method: STANDARD PLATE): inactive; negative
- mutagenic call (Test System: CHINESE HAMSTER V-79, Strain/Indicator: V-79/6-THIOGUANINE, Metabolic Activation: GUINEA PIG, LIVER, S-9, 3-METHYLCHOLANTHRENE): active; positive

SMILES: O=C1C=C(S(=O)(=O)O)c2ccccc2C1=O
- mutagenic call (Test System: AMES SALMONELLA TYPHIMURIUM, Strain/Indicator: TA97, Metabolic Activation: NONE, Method: PREINCUBATION): inactive; negative
- mutagenic call (Test System: AMES SALMONELLA TYPHIMURIUM, Strain/Indicator: TA97, Metabolic Activation: RAT, LIVER, S-9, PHENOBARBITAL AND 5,6-BENZOFLAVONE, Method: PREINCUBATION): inactive; negative
- mutagenic call [1]: inactive; negative
- mutagenic call (Test System: AMES SALMONELLA TYPHIMURIUM, Strain/Indicator: TA98, Metabolic Activation: RAT, LIVER, S-9, PHENOBARBITAL AND 5,6-BENZOFLAVONE, Method: PREINCUBATION): inactive; negative
- mutagenic call [2]: active; positive
- mutagenic call [3]: inactive; negative
- mutagenic call [4]: inactive; negative
- mutagenic call [5]: inactive; negative
- mutagenic call (Test System: AMES SALMONELLA TYPHIMURIUM, Strain/Indicator: TA104, Metabolic Activation: NONE, Method: PREINCUBATION): active; positive
- mutagenic call (Test System: AMES SALMONELLA TYPHIMURIUM, Strain/Indicator: TA104, Metabolic Activation: RAT, LIVER, S-9, PHENOBARBITAL AND 5,6-BENZOFLAVONE, Method: PREINCUBATION): inactive; negative
- mutagenic call (Test System: AMES SALMONELLA TYPHIMURIUM, Strain/Indicator: TA1535, Metabolic Activation: NONE, Method: PREINCUBATION): inactive; negative
- mutagenic call (Test System: AMES SALMONELLA TYPHIMURIUM, Strain/Indicator: TA1535, Metabolic Activation: RAT, LIVER, S-9, PHENOBARBITAL AND 5,6-BENZOFLAVONE, Method: PREINCUBATION): inactive; negative
- mutagenic call (Test System: AMES SALMONELLA TYPHIMURIUM, Strain/Indicator: TA1537, Metabolic Activation: NONE, Method: PREINCUBATION): inactive; negative
- mutagenic call (Test System: AMES SALMONELLA TYPHIMURIUM, Strain/Indicator: TA1537, Metabolic Activation: RAT, LIVER, S-9, PHENOBARBITAL AND 5,6-BENZOFLAVONE, Method: PREINCUBATION): inactive; negative
- mutagenic call (Test System: AMES SALMONELLA TYPHIMURIUM, Strain/Indicator: TA1538, Metabolic Activation: NONE, Method: PREINCUBATION): inactive; negative
- mutagenic call (Test System: AMES SALMONELLA TYPHIMURIUM, Strain/Indicator: TA1538, Metabolic Activation: RAT, LIVER, S-9, PHENOBARBITAL AND 5,6-BENZOFLAVONE, Method: PREINCUBATION): inactive; negative
- mutagenic call [6]: active; positive
- mutagenic call [7]: inactive; negative

SMILES: c1ccc(C(c2ccccc2)c2ccccc2)cc1
- mutagenic call [10]: inactive; negative
- mutagenic call (Test System: AMES SALMONELLA TYPHIMURIUM, Strain/Indicator: TA97, Metabolic Activation: RAT, LIVER, S-9, AROCLOR 1254, Method: STANDARD PLATE): inactive; negative
- mutagenic call [11]: inactive; negative
- mutagenic call (Test System: AMES SALMONELLA TYPHIMURIUM, Strain/Indicator: TA98, Metabolic Activation: RAT, LIVER, S-9, AROCLOR 1254, Method: STANDARD PLATE): inactive; negative
- mutagenic call [8]: inactive; negative
- mutagenic call [9]: inactive; negative
- mutagenic call (Test System: AMES SALMONELLA TYPHIMURIUM, Strain/Indicator: TA104, Metabolic Activation: NONE, Method: STANDARD PLATE): inactive; negative
- mutagenic call (Test System: AMES SALMONELLA TYPHIMURIUM, Strain/Indicator: TA104, Metabolic Activation: RAT, LIVER, S-9, AROCLOR 1254, Method: STANDARD PLATE): inactive; negative

SMILES: O=C1OC(O)C(CCl)=C1Cl (stereo not given)
- mutagenic call [10]: active; positive
- mutagenic call [11]: active; positive
- mutagenic call (Test System: AMES SALMONELLA TYPHIMURIUM, Strain/Indicator: TA102, Metabolic Activation: NONE, Method: STANDARD PLATE): active; positive
- mutagenic call (Test System: AMES SALMONELLA TYPHIMURIUM, Strain/Indicator: TA1535, Metabolic Activation: NONE, Method: STANDARD PLATE): active; positive
- mutagenic call (Test System: CHINESE HAMSTER OVARY, Strain/Indicator: CHO-KTL3 (HPRT)/6-THIOGUANINE, Metabolic Activation: NONE): active; positive
- mutagenic call (Test System: UDS RAT HEPATOCYTES, Strain/Indicator: THYMIDINE INCORPORATION, Metabolic Activation: NONE, Method: AUTORADIOGRAPHY): active; positive

SMILES: O=[N+]([O-])c1ccc2c3ccccc3c3ccc([N+](=O)[O-])c4ccc1c2c43
- mutagenic call (End Point: In vitro micronucleus, Test System: CHL/IU cells, Metabolic Activation: None): active; positive
- mutagenic call (End Point: In vitro micronucleus, Test System: HepG2 cells, Metabolic Activation: None): active; positive
- mutagenic call (Test System: Chinese hamster lung cells/HPRT locus, Strain/Indicator: CHL/IU, Metabolic Activation: None): active; positive
- mutagenic call (Test System: Human liver cells/HPRT locus, Strain/Indicator: HepG2, Metabolic Activation: None): active; positive
